What was measured:
[1] = test system: P5 DIV3 rat spiral ganglia neurons; test: Rotenone-induced neurite degeneration (neurite beading/blebbing, NF-200 stain) in spiral ganglia neuron culture; type: cell-based
Description: Dissociated spiral ganglia neurons were harvested from P5 rats. Briefly, pups were rapidly decapitated, and cochlea were dissected. The modiolus was then dissected and digested (0.1% trypsin, 0.1% collagenase, HBSS−/−) for 45 min at 37° C. Sequential trituration was performed with fire-polished pipets to release cells from the tissue, and cells were transferred to laminin/polylysine-coated 24-well plates. Neurons were incubated overnight in culture media (DMEM high glucose, N2 supplement, 10 μg/ml insulin, 25 μg/ml BDNF, 25 μg/ml NT3). To elicit neurite degeneration, cultures were incubated with rotenone (10 μM) for 2 hr in the presence/absence of 10 mM NAD+.
Spiral ganglia neuron cultures were fixed with 4% paraformaldehyde and permeabilized with 0.5% Triton X-100™/PBS for 10 min. After washing, cells were blocked with 4% donkey serum and incubated with mouse anti-NF200 (1:1000) overnight at 4° C. Neurite beading was then measured using a previously described, unbiased computerized protocol (Sasaki, Y. et al., J. Neuroscience, 29, 5525-5535 (2009)).
Axonal degeneration in a variety of neurons can be blocked by treatment with millimolar concentrations of NAD+ (Avery, M. A., et al., Current Biology, CB 22, 596-600 (2012)). […] This effect was blocked by simultaneous treatment of neurons with 10 mM NAD+. […]

[2] = test system: spiral ganglia neurites / inner hair cells of noise-exposed mice; test: Retraction of spiral ganglia neurites from inner hair cells after noise exposure (cochlear immunohistology); type: in vivo; settings: basal turn of the cochlea, NR before and after acoustic trauma
Description: Mouse cochlea were prepared as described in Whitlon, D. S. et al., Brain Research Protocols, 6, 159-166 (2001). Mouse cochlea were quickly dissected from the temporal bone following rapid decapitation. Once separated, the apex of the cochlea was gently fenestrated, and the cochlea were immediately fixed in 4% paraformaldehyde overnight at 4° C. The cochlea were then washed with three changes of PBS and incubated in a decalcification solution (10% EDTA/PBS pH 7.4) under constant rotation at 4° C. for 1 week. The decalcification solution was changed daily. Cochlea were washed in 3 changes of PBS and then treated with progressively increasing sucrose concentrations from 10-30%. The cochlea were incubated overnight in 30% sucrose at 4° C. The cochlea were incubated an additional 24 hr in OCT compound (Tissue-Tek). […]
Noise-induced hearing loss is associated with retraction of spiral ganglia neurites from the inner hair cells. As the most prominent hearing losses are seen in the portion of the auditory spectrum that contains the highest audible frequencies, the basal turn of the cochlea where this portion of the auditory spectrum is detected was focused on. […] Immunofluorescence labeling of the cochlea can readily show whether spiral ganglia neurites are forming their proper contacts with the base of inner hair cells. […]

[3] = test system: noise-exposed C57BL6 mice; test: Auditory brainstem response (ABR) testing of noise-induced hearing loss after 90 dB octave band noise exposure for 2 hr; type: in vivo; parameters: Avg. hearing loss: unit not given here; settings: for transient threshold shift: 24 hours after noise exposure
Description: Auditory brainstem response testing was performed as previously described (Willott, J. F., Current Protocols in Neuroscience, 8.21B, B1-B12 (2005). Animals were tested following sedation with ketamine and xylazine (40 mg/kg and 10 mg/kg, respectively). Tone burst stimuli at 8, 16, and 32 kHz for 0.5 msec were used to elicit auditory evoked responses using an auditory brainstem recording system (Intelligent Hearing Systems, Miami, Fla.). An evoked response was determined by identifying waveforms at proper time intervals that increased in magnitude with increasing volume as described previously by Willott.
Animals were exposed to a 90 dB octave band for 2 hr in a cage placed in a soundproof chamber (MAC-2, Industrial Acoustics Company, Bronx N.Y.). The mice were able to freely move throughout the cage. The octave band was generated using ToneGen software (NCH software, Greenwood Village, Colo.) routed through an Audiosource Amp100 amplifier driving two down-facing Fostex FT-96H speakers. The sound pressure level was confirmed at 0, 30, 60, and 90 min, and again just prior to completion of sound exposure using an Extech microphone 407736.
To test whether augmented NAD biosynthesis protects from noise-induced hearing loss, auditory brainstem responses (ABR) elicited by tone burst stimuli after acoustic trauma was measured. An ABR occurs when a mouse hears the tone burst stimulus. In these experiments, acoustic trauma was elicited in mice by a 90 dB octave band noise exposure for 120 min. To quantify the degree of hearing loss, “threshold shifts” were measured. These shifts refer to the increased level of sound intensity that is required to elicit an ABR. The threshold for detecting sound stimuli is determined by exposing mice to 0.5 msec tone bursts at a specific frequency and volume. […] Transient threshold shifts (TTS) refer to a temporary hearing loss 24 hours after noise exposure, and permanent threshold shifts (PTS) refer to hearing loss that remains 2 weeks after exposure.
(§1) Nicotinamide riboside (NR) is a well-tolerated precursor of NAD+. In these experiments, NR was administered by intraperitoneal injection twice daily at 1000 mg/kg, a dose which increases tissue NAD levels by 50%, either for 5 days prior to noise exposure and 14 days after noise exposure (NR Before+ After), 5 days prior to noise exposure (NR Before), or 14 days after noise exposure (NR After). […] The hearing loss at 8000 Hz, […], and 32,000 Hz is set forth in the Table and is depicted graphically in FIGS. 4A-4C, respectively.

tissue NAD levels = test: Tissue NAD levels after intraperitoneal NR; type: in vivo; settings: intraperitoneal injection twice daily at 1000 mg/kg
Description: as §1

## C=C(C)[C@H]1Cc2c(ccc3c2O[C@@H]2COc4cc(OC)c(OC)cc4[C@@H]2C3=O)O1 [rotenone]
[1]; 10 μM rotenone, in as early as 2 hr
  neurite degeneration, as measured by the presence of neurite blebbing: resulted in neurite degeneration

## NC(=O)c1ccc[n+]([C@@H]2O[C@H](CO)[C@@H](O)[C@H]2O)c1 [NR, Nicotinamide riboside]
[2]; 24 hr after noise exposure
  neurite retraction (distance of spiral ganglia neurites from inner hair cells): 4.3±4.5 μm
[2]; 14 d after noise exposure
  neurite retraction (distance of spiral ganglia neurites from inner hair cells): 2.5±3.5 μm
[3]; 8000 Hz, NR i.p. twice daily 1000 mg/kg
  transient threshold shift: 6 dB
[3]; 16,000 Hz, NR i.p. twice daily 1000 mg/kg
  transient threshold shift: 8 dB
[3]; 32,000 Hz, NR i.p. twice daily 1000 mg/kg
  transient threshold shift: 16 dB
[3]; NR after (i.p. twice daily 1000 mg/kg, 14 days after noise), Baseline, 8 kHz
  Avg. hearing loss: 14
[3]; NR after, 1 wk post noise, 8 kHz
  Avg. hearing loss: 17
[3]; NR after, 1 wk post noise, 32 kHz
  Avg. hearing loss: 28
[3]; NR after, 2 wks post noise, 8 kHz
  Avg. hearing loss: 18
[3]; NR after, 2 wks post noise, 16 kHz
  Avg. hearing loss: 15
[3]; NR after, 2 wks post noise, 32 kHz
  Avg. hearing loss: 28
[3]; NR after, 24 h post noise, 8 kHz
  Avg. hearing loss: 23
[3]; NR after, 24 h post noise, 16 kHz
  Avg. hearing loss: 23
[3]; NR after, 24 h post noise, 32 kHz
  Avg. hearing loss: 37
[3]; NR after, Baseline, 16 kHz
  Avg. hearing loss: 19
[3]; NR after, Baseline, 32 kHz
  Avg. hearing loss: 31
[3]; NR after, Pre-noise, 8 kHz
  Avg. hearing loss: 14
[3]; NR after, Pre-noise, 16 kHz
  Avg. hearing loss: 21
[3]; NR after, Pre-noise, 32 kHz
  Avg. hearing loss: 16
[3]; NR before (i.p. twice daily 1000 mg/kg, 5 days prior to noise), Baseline, 8 kHz
  Avg. hearing loss: 14
[3]; NR before and after (i.p. twice daily 1000 mg/kg, 5 days prior to and 14 days after noise), Baseline, 8 kHz
  Avg. hearing loss: 16
[3]; NR before and after, 1 wk post noise, 8 kHz
  Avg. hearing loss: 15
[3]; NR before and after, 1 wk post noise, 16 kHz
  Avg. hearing loss: 25
[3]; NR before and after, 1 wk post noise, 32 kHz
  Avg. hearing loss: 40
[3]; NR before and after, 2 wks post noise, 8 kHz
  Avg. hearing loss: 20
[3]; NR before and after, 2 wks post noise, 16 kHz
  Avg. hearing loss: 20
[3]; NR before and after, 2 wks post noise, 32 kHz
  Avg. hearing loss: 20
[3]; NR before and after, 24 h post noise, 8 kHz
  Avg. hearing loss: 22
[3]; NR before and after, 24 h post noise, 16 kHz
  Avg. hearing loss: 26
[3]; NR before and after, 24 h post noise, 32 kHz
  Avg. hearing loss: 44
[3]; NR before and after, Baseline, 16 kHz
  Avg. hearing loss: 13
[3]; NR before and after, Baseline, 32 kHz
  Avg. hearing loss: 19
[3]; NR before and after, Pre-noise, 8 kHz
  Avg. hearing loss: 16
[3]; NR before and after, Pre-noise, 16 kHz
  Avg. hearing loss: 18
[3]; NR before and after, Pre-noise, 32 kHz
  Avg. hearing loss: 28
[3]; NR before, 1 wk post noise, 8 kHz
  Avg. hearing loss: 15
[3]; NR before, 1 wk post noise, 16 kHz
  Avg. hearing loss: 23
[3]; NR before, 1 wk post noise, 32 kHz
  Avg. hearing loss: 23
[3]; NR before, 2 wks post noise, 8 kHz
  Avg. hearing loss: 18
[3]; NR before, 2 wks post noise, 16 kHz
  Avg. hearing loss: 18
[3]; NR before, 2 wks post noise, 32 kHz
  Avg. hearing loss: 23
[3]; NR before, 24 h post noise, 8 kHz
  Avg. hearing loss: 18
[3]; NR before, 24 h post noise, 16 kHz
  Avg. hearing loss: 25
[3]; NR before, 24 h post noise, 32 kHz
  Avg. hearing loss: 38
[3]; NR before, Baseline, 16 kHz
  Avg. hearing loss: 16
[3]; NR before, Baseline, 32 kHz
  Avg. hearing loss: 21
[3]; NR before, Pre-noise, 8 kHz
  Avg. hearing loss: 13
[3]; NR before, Pre-noise, 16 kHz
  Avg. hearing loss: 18
[3]; NR before, Pre-noise, 32 kHz
  Avg. hearing loss: 17
[3]; all 3 frequencies (8000, 16,000, 32,000 Hz), NR i.p. twice daily 1000 mg/kg
  protection from permanent hearing loss: similarly protected
Tissue NAD levels
  increase of tissue NAD levels: 50%

## NC(=O)c1ccc[n+]([C@@H]2O[C@H](COP(=O)([O-])OP(=O)(O)OC[C@H]3O[C@@H](n4cnc5c(N)ncnc54)[C@H](O)[C@@H]3O)[C@@H](O)[C@H]2O)c1 [NAD+]
[1]; simultaneous treatment with 10 mM NAD+ and 10 μM rotenone, 2 hr
  effect on rotenone-induced neurite degeneration: blocked
